# Like-named read-outs stand apart in the source and are kept apart here.
# Assays:
# Type in all cases: cell-based
# [1] = system: AmpC-derepressed Pseudomonas aeruginosa mutant strain (S-3028); experiment: Antibacterial activity evaluation test, MIC by broth microdilution (CLSI); conditions: Pseudomonas aeruginosa S-3028
# Method in brief: (§1)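 Colonies grown overnight on Mueller Hinton agar, suspended to 0.5 McFarland and diluted 10-fold as inoculum. Incubation in cation-adjusted Mueller Hinton broth with test compound at 35° C for 16–20 h. MIC (μg/mL) is the lowest concentration with no visible growth.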
# [2] = system: CTX-M-15-containing Escherichia coli strain (TK-1747); experiment: as above; conditions: Escherichia coli TK-1747
# Method in brief: as §1
# [3] = system: GES-19 and GES-20-containing Pseudomonas aeruginosa strain (S-3759); experiment: as above; conditions: Pseudomonas aeruginosa S-3759
# Method in brief: as §1
# [4] = system: IMP-1-containing Pseudomonas aeruginosa strain (S-2838); experiment: as above; conditions: Pseudomonas aeruginosa S-2838
# Method in brief: as §1
# [5] = system: KPC-2-containing Klebsiella pneumoniae strain (Y-995); experiment: as above; conditions: Klebsiella pneumoniae Y-995
# Method in brief: as §1
# [6] = system: NDM-1-containing Klebsiella pneumoniae strain (Y-1007); experiment: as above; conditions: Klebsiella pneumoniae Y-1007
# Method in brief: as §1
# [7] = system: OXA-48-containing Klebsiella pneumoniae strain (Y-1062); experiment: as above; conditions: Klebsiella pneumoniae Y-1062
# Method in brief: as §1
# [8] = system: Pseudomonas aeruginosa strain ATCC27853; experiment: as above; conditions: Pseudomonas aeruginosa, ATCC27853
# Method in brief: as §1
# [9] = system: VIM-2-containing Pseudomonas aeruginosa strain (S-3779); experiment: as above; conditions: Pseudomonas aeruginosa S-3779
# Method in brief: as §1
# [10] = system: Klebsiella pneumoniae Y-1020 strain producing KPC-3 and SHV-12 (strain B); experiment: MIC of test compound alone or with β-lactamase inhibitor at 4 μg/mL; conditions: for MIC: Strain B; for antibacterial activity in combination with a β-lactamase inhibitor versus without: for all the bacterial strains (strains A to E), summary of Tables 43 to 47
# Method: (§2) By using a broth microdilution method, the combinational effect of a test compound and a β-lactamase inhibitor was evaluated.
# (§3) The evaluation test for antibacterial activity was performed in the same manner as in Test Example 1.
# [11] = system: Klebsiella pneumoniae Y-1133 strain producing NDM-1, OXA-48, and CTX-M-15 (strain C); experiment: as above
# Method: as §2, §3
# Klebsiella pneumoniae Y-1133 strain producing NDM-1, OXA-48, and CTX-M-15 (hereinafter, called strain C),
# (§4) An antibacterial activity evaluation test was performed in the same manner as in Test Example 6.
# (§5) As the bacterial strain, the strains B, C, and D producing β-lactamase and a Klebsiella pneumoniae Y-1069 strain (hereinafter, called strain F) producing OXA-48 and CTX-M-15 were used.
# [12] = system: Escherichia coli TK-3113 strain producing IMP-8 (strain D); experiment: as above
# Method: as §2, §3
# Escherichia coli TK-3113 strain producing IMP-8 (hereinafter, called strain D),
# as §4, §5
# [13] = system: Klebsiella pneumoniae Y-1069 strain producing OXA-48 and CTX-M-15 (strain F); experiment: as above; conditions: for MIC: Klebsiella pneumoniae, Strain F
# Method: as §3, §4, §5
# [14] = system: Escherichia coli TK-1765 strain producing CMY-2 (strain E); experiment: as above
# Method: as §2, §3
# Escherichia coli TK-1765 strain producing CMY-2 (hereinafter, called strain E)
# [15] = system: Escherichia coli TK-1747 strain producing CTX-M-15 (strain A); experiment: as above
# Method: as §2, §3
# Escherichia coli TK-1747 strain producing CTX-M-15 (hereinafter, called strain A),
# [16] = test compound alone (β-lactamase inhibitor N/A)
smiles,measurement,setting,value
CC(C)(O/N=C(\C(=O)NC1C(=O)N2C[C@@](C(=O)O)(N3CCN(NC(=O)C(=O)c4c(F)cc(O)c(O)c4Cl)C3=O)S[C@H]12)c1csc(N)n1)C(=O)O (some centres unmarked) [Example 143],Antibacterial activity (MIC) Pseudomonas aeruginosa S-3028,[1],0.12 µg/mL
same,Antibacterial activity (MIC) Escherichia coli TK-1747,[2],0.12 µg/mL
same,Antibacterial activity (MIC) Pseudomonas aeruginosa S-3759,[3],1 µg/mL
same,Antibacterial activity (MIC) Pseudomonas aeruginosa S-2838,[4],0.5 µg/mL
same,Antibacterial activity (MIC) Klebsiella pneumoniae Y-995,[5],0.12 µg/mL
same,Antibacterial activity (MIC) Klebsiella pneumoniae Y-1007,[6],< 0.06 µg/mL
same,Antibacterial activity (MIC) Klebsiella pneumoniae Y-1062,[7],2 µg/mL
same,Antibacterial activity (MIC) Pseudomonas aeruginosa ATCC 27853,[8],0.5 µg/mL
same,Antibacterial activity (MIC) Pseudomonas aeruginosa S-3779,[9],0.25 µg/mL
same,MIC,"[10]; Klebsiella pneumoniae, test compound alone (β-lactamase inhibitor N/A), read-out: MIC",2 µg/mL
same,MIC,"[10]; Klebsiella pneumoniae, with AVI at 4 μg/mL, read-out: MIC",0.5 µg/mL
same,MIC,"[10]; Klebsiella pneumoniae, with CVA at 4 μg/mL, read-out: MIC",1 µg/mL
same,MIC,"[10]; Klebsiella pneumoniae, with NAC at 4 μg/mL, read-out: MIC",0.03 µg/mL
same,MIC,"[10]; Klebsiella pneumoniae, with VOB at 4 μg/mL, read-out: MIC",1 µg/mL
same,MIC,"[10]; Klebsiella pneumoniae, with ZID at 4 μg/mL, read-out: MIC",0.03 µg/mL
same,MIC,"[11]; Klebsiella pneumoniae, with NAC at 4 μg/mL",0.06 µg/mL
same,MIC,"[11]; Klebsiella pneumoniae, with ZID at 4 μg/mL",< 0.015 µg/mL
same,MIC,"[12]; Escherichia coli, test compound alone (β-lactamase inhibitor N/A)",0.5 µg/mL
same,MIC,"[12]; Escherichia coli, with NAC at 4 μg/mL",< 0.015 µg/mL
same,MIC,"[12]; Escherichia coli, with ZID at 4 μg/mL",< 0.015 µg/mL
same,MIC,[13]; [16],8 µg/mL
same,MIC,[13]; with AVI at 4 μg/mL,0.25 µg/mL
same,MIC,[13]; with CVA at 4 μg/mL,4 µg/mL
same,MIC,[13]; with NAC at 4 μg/mL,0.12 µg/mL
same,MIC,[13]; with SBT at 4 μg/mL,4 µg/mL
same,MIC,[13]; with TAZ at 4 μg/mL,4 µg/mL
same,MIC,[13]; with ZID at 4 μg/mL,< 0.015 µg/mL
same,antibacterial activity in combination with a β-lactamase inhibitor versus without,"[13]; for all the bacterial strains (strains B, C, D and F), summary of Tables 51 and 52",higher antibacterial activity
CC(C)(O/N=C(\C(=O)N[C@@H]1C(=O)N2C[C@@](C(=O)O)(N3CCN(NC(=O)C(=O)c4ccc(O)c(O)c4Cl)C3=O)S[C@H]12)c1nc(N)sc1Cl)C(=O)O [Compound D],MIC,[10]; AVI added at 4 μg/mL,0.25 µg/mL
same,MIC,[10]; NAC added at 4 μg/mL,<0.015 µg/mL
same,MIC,[10]; ZID added at 4 μg/mL,<0.015 µg/mL
same,MIC,[10]; [16],2 µg/mL
same,antibacterial activity in combination with a β-lactamase inhibitor versus without,[10],higher antibacterial activity
same,MIC,[11]; AVI added at 4 μg/mL,0.12 µg/mL
same,MIC,[11]; NAC added at 4 μg/mL,<0.015 µg/mL
same,MIC,[11]; ZID added at 4 μg/mL,<0.015 µg/mL
same,MIC,[11]; [16],0.5 µg/mL
same,MIC,[12]; AVI added at 4 μg/mL,0.5 µg/mL
same,MIC,[12]; NAC added at 4 μg/mL,0.06 µg/mL
same,MIC,[12]; ZID added at 4 μg/mL,0.03 µg/mL
same,MIC,[12]; [16],1 µg/mL
same,MIC,[14]; [16],0.5 µg/mL
same,MIC,[14]; with AVI at 4 μg/mL,0.03 µg/mL
same,MIC,[14]; with CVA at 4 μg/mL,0.25 µg/mL
same,MIC,[14]; with SBT at 4 μg/mL,0.25 µg/mL
same,MIC,[14]; with TAZ at 4 μg/mL,0.06 µg/mL
same,MIC,[14]; with VAB at 4 μg/mL,0.12 µg/mL
Nc1nc(/C(=N/OC2(C(=O)O)CC2)C(=O)N[C@@H]2C(=O)N3C[C@@](C(=O)O)(N4CCN(NC(=O)C(=O)c5ccc(O)c(O)c5Cl)C4=O)S[C@H]23)cs1 [Compound E],MIC,[15]; AVI added at 4 μg/mL,<0.015 µg/mL
same,MIC,[15]; CVA added at 4 μg/mL,<0.015 µg/mL
same,MIC,[15]; NAC added at 4 μg/mL,<0.015 µg/mL
same,MIC,[15]; SBT added at 4 μg/mL,<0.015 µg/mL
same,MIC,[15]; TAZ added at 4 μg/mL,<0.015 µg/mL
same,MIC,[15]; ZID added at 4 μg/mL,<0.015 µg/mL
same,MIC,[15]; [16],0.06 µg/mL
same,MIC,[10]; AVI added at 4 μg/mL,0.25 µg/mL
same,MIC,[10]; NAC added at 4 μg/mL,<0.015 µg/mL
same,MIC,[10]; VAB added at 4 μg/mL,1 µg/mL
same,MIC,[10]; ZID added at 4 μg/mL,<0.015 µg/mL
same,MIC,[10]; [16],4 µg/mL
same,antibacterial activity in combination with a β-lactamase inhibitor versus without,[10],higher antibacterial activity
same,MIC,[11]; AVI added at 4 μg/mL,0.12 µg/mL
same,MIC,[11]; NAC added at 4 μg/mL,<0.015 µg/mL
same,MIC,[11]; ZID added at 4 μg/mL,<0.015 µg/mL
same,MIC,[11]; [16],1 µg/mL
same,MIC,[12]; AVI added at 4 μg/mL,0.12 µg/mL
same,MIC,[12]; NAC added at 4 μg/mL,<0.015 µg/mL
same,MIC,[12]; ZID added at 4 μg/mL,<0.015 µg/mL
same,MIC,[12]; [16],0.25 µg/mL
same,MIC,[14]; [16],1 µg/mL
same,MIC,[14]; with AVI at 4 μg/mL,0.06 µg/mL
same,MIC,[14]; with SBT at 4 μg/mL,0.5 µg/mL
same,MIC,[14]; with TAZ at 4 μg/mL,0.25 µg/mL
same,MIC,[14]; with VAB at 4 μg/mL,0.12 µg/mL
"CO/N=C(\C(=O)N[C@@H]1C(=O)N2C(C(=O)O)=C(COC(C)=O)CS[C@H]12)c1csc(N)n1 [CTX, cefotaxime sodium, reference compound]",MIC,"[15]; Escherichia coli, test compound alone (β-lactamase inhibitor N/A), read-out: MIC",> 128 µg/mL

# Reference: patent US20220241249A1, “PHARMACEUTICAL COMPOSITION AND KIT CONTAINING NOVEL PENAM DERIVATIVE OR SALT THEREOF AND ONE OR MORE COMPOUNDS SELECTED FROM beta-LACTAMASE INHIBITORY COMPOUND AND ANTIBACTERIAL COMPOUND OR SALTS THEREOF” (priority 2019, published 2022)
